From patent US4224325A, “3-(1-Pyrazolyl)-pyridazine derivatives and hypotensive compositions thereof” (Richter Gedeon Vegyeszeti Gyar Rt., priority 1977, dated 1980)
Where two headings read alike, the source gives them in different places.

Key:
[1] = molecular target: T1, prostaglandin dehydrogenase (PGDH) (Sus scrofa, UniProt A0ACM8QJV0); assay: Prostaglandin dehydrogenase (PGDH) inhibiting action, method of Marrazzi and Matschinsky, PGDH preparation from pig lung; format: biochemical
T1 construct: on a PGDH preparation from pig lung; from tissue; host or cells: pig lung
T1 sequence (A0ACM8QJV0 1-266): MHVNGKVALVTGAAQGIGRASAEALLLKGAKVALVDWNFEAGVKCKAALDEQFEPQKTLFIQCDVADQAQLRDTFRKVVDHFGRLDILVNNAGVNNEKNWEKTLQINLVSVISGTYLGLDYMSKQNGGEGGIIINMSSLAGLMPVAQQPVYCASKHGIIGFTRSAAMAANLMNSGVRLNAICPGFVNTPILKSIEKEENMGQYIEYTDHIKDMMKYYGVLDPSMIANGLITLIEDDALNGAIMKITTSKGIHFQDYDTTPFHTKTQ
Text: (§1) The I50%, i.e. the index of inhibition, is defined as the concentration of the substance inhibiting to 50% the function of the corresponding enzyme.

[2] = molecular target: prostaglandin-A isomerase (PGAI); assay: Prostaglandin-A isomerase (PGAI) inhibiting action, method of Jones et al., PGAI preparation from blood plasma of pigs; format: biochemical; conditions: concentration inhibiting enzyme function to 50%; PGAI from pig blood plasma; read-out: I50% inhibiting level in final concentration, PGAI
Text: as §1

in vivo = conditions: mouse, po
cats = assay: Hypotensive action in narcotized cats (decrease in blood pressure); format: in vivo; conditions: cats narcotized i.p. by 30 mg/kg Pentobarbital
mice = conditions: against Hydralazine
[3] = Tachycardia (inability to cause, compared with Hydralazine); format: in vivo; conditions: against Hydralazine
[4] = system: spontaneously hypertensive (Wistar-Okamoto) rats; assay: Hypotensive action in spontaneously hypertensive rats, systolic blood pressure in caudal artery by indirect method after oral treatment; format: in vivo; conditions: dose equal to Hydralazine
Method: The hypotensive action of substance 44 was studied also in spontaneously hypertensive (Wistar-Okamoto(rats)Arzneim.- forsch. 6, 222, 1956): the systolic blood pressure was measured in the caudal artery by an indirect method, after oral treatment.

[5] = system: prostaglandin dehydrogenase and prostaglandin-A isomerase; assay: Inhibition of enzymes regulating prostaglandin catabolism (prostaglandin dehydrogenase and prostaglandin-A isomerase), in words; format: biochemical
Method: The prostaglandin-A isomerase (PGAI) inhibiting action of the compounds according to the invention was measured by the method of Jones et al. (Biochim. Biophys. Acta 280, 558, 1972) on a PGAI preparation from the blood plasma of pigs, whereas the prostaglandin dehydrogenase (PGDH) inhibiting action was determined by the method of Marrazzi and Matschinsky (Prostaglandins 1, 373, 1972); on a PGDH preparation from pig lung.

[6] = concentration inhibiting enzyme function to 50%, PGDH from pig lung, read-out: I50% inhibiting level in final concentration, PGDH

Compound | IC50 [2] | LD50 (in vivo) | Decrease in blood pressure by 1 mg/kg (cats) | other results
C[C@]12CC[C@@H]3c4ccc(O)cc4CC[C@H]3[C@@H]1CCC2=O [Estrone, reference compound] | – | – | – | IC50 [1]: 10 µM
Cc1cc(C)n(-c2ccc(NCc3ccccc3)nn2)n1 [Example 17, 3-Benzylamino-6-(3,5-dimethyl-1-pyrazolyl)-pyridazine] | – | – | – | IC50 [1, 6]: 200 µM
Cc1cc(C)n(-c2ccc(N(C)C)nn2)n1 [Example 19, 3-Dimethylamino-6-(3,5-dimethyl-1-pyrizolyl)-pyridazine] | 130 µM | – | – | –
c1ccc(CNc2ccc(-n3nc(-c4ccccc4)cc3-c3ccccc3)nn2)cc1 [Example 21, 3-Benzylamino-6-(3,5-diphenyl-1-pyrazolyl)-pyridazine] | 20 µM | – | – | –
Cc1cc(C)n(-c2ccc(NN)nn2)n1 [Example 25, 3-hydrazino-6-(3,5-dimethyl-1-pyrazolyl)-pyridazine] | 25 µM | 200 mg/kg | -30 Hgmm | –
NNc1ccc(-n2nc(C3CC3)cc2C2CC2)nn1 [Example 26, 3-Hydrazino-6-(3,5-dicyclopropyl-1-pyrazolyl)-pyridazine] | – | 100 mg/kg | -40 Hgmm | –
CCc1cc(CC)n(-c2ccc(NN)nn2)n1 [Example 29, 3-Hydrazino-6-(3,5-diethyl-1-pyrazolyl)-pridazine] | – | ~150 mg/kg | -40 Hgmm | –
Cc1nn(-c2ccc(NN)nn2)c(C)c1C [Example 31, 3-Hydrazino-6-(3,4,5-trimethyl-1-pyrazolyl)-pridazine] | 60 µM | 100 mg/kg | -15 Hgmm | –
Cc1nn(-c2ccc(NN)nn2)c(C)c1Cl [Example 34, 3-Hydrazino-6-(3,5-dimethyl-4-chloro-1-pyrazolyl)-pyridazine] | – | > 200 mg/kg | -20 Hgmm | IC50 [1, 6]: 110 µM
Cc1nn(-c2ccc(NN)nn2)c(C)c1Br [Example 35, 3-Hydrazini-6-(3,5-dimethyl-4-bromo-1-pyrazolyl)-pyridazine] | 80 µM | – | – | –
NNc1ccc(-n2nccc2N)nn1 [Example 40, 3-Hydrazino-6-(5-amino-1-pyrazolyl)-pyridazine] | – | 200 mg/kg | -30 Hgmm | –
Cc1nn(-c2ccc(NN)nn2)c(C)c1N [Example 44, 3-hydrazino-6-(3,5-dimethyl-4-amino-1-pyrazolyl)-pyridazine] | 70 µM | > 200 mg/kg | -40 Hgmm | Toxicity compared with Hydralazine (mice): extraordinarily favorable toxicity; Tachycardia [3]: inability to cause tachycardia; Duration of effect compared with Hydralazine at equal dose [4]: same duration of effect; Effectivity (systolic blood pressure) compared with Hydralazine at equal dose [4]: same effectivity; Prostaglandin catabolism inhibiting effect [5]: prostaglandin catabolism inhibiting effect
NNc1ccc(-n2cc(N)cn2)nn1 [Example 45, 3-Hydrazino-6-(4-amino-1-pyrazolyl)-pyridazine] | – | 200 mg/kg | -30 Hgmm | –
CCc1nn(-c2ccc(NN)nn2)c(CC)c1N [Example 46, 3-Hydrazino-6-(3,5-diethyl-4-amino-1-pyrazolyl)-pyridazine] | – | 200 mg/kg | -50 Hgmm | –
Cc1nn(-c2ccc(NNC(=O)OC(C)(C)C)nn2)c(C)c1N [Example 56, 3-(2-tert-butoxycarbonyl-1-hydrazino)-6-(3,5-dimethyl-4-amino-1-pyrazolyl)-pyridazine] | – | 200 mg/kg | -35 Hgmm | –
Cl.NNc1nncc2ccccc12 [Hydralazine, 1-hydrazinophthalazine hydrochloride, reference compound] | 90 µM | 200 mg/kg | -40 Hgmm | –
